“And” between values parts separate entries of the source, which are not always exact repeats. Equal values may be shown once. Inconclusive results and toxic doses are left out.
System: P388 leukemia ip, CD2F1 mice, survival T/C
Test: NCI In Vivo Anticancer Drug Screen. Data for tumor model P388 Leukemia (intraperitoneal) in CD2F1 (CDF1) mice
Conditions: endpoint: median survival time, higher = longer survival
Summary of the method: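 Mice carrying the transplanted tumor received test compound or vehicle. Survival was recorded in each group, and the value is the treated-group measurement divided by that of the vehicle-treated control group.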

[1] = dose: 100.0 mg/kg/injection, schedule: Q01DX009 (ip), vehicle: saline
[2] = dose: 50.0 mg/kg/injection, schedule: Q01DX005 (ip), vehicle: Klucel (hydroxypropylcellulose) (HPC)
[3] = dose: 100.0 mg/kg/injection, schedule: Q01DX005 (ip), vehicle: Klucel (hydroxypropylcellulose) (HPC)
[4] = dose: 200.0 mg/kg/injection, schedule: Q01DX005 (ip), vehicle: Klucel (hydroxypropylcellulose) (HPC)

For O=c1[nH]c(=O)n(C2OC(CO)C(O)C2O)cc1F (stereo not drawn), the T/C (dose: 0.62 mg/kg/injection, schedule: Q01DX009 (ip), vehicle: saline) was 179 % of control, the T/C (dose: 0.79 mg/kg/injection, schedule: Q01DX009 (ip), vehicle: saline) was 157 % of control and the T/C (dose: 1.0 mg/kg/injection, schedule: Q01DX005 (ip), vehicle: saline) was 158 % of control. The T/C (dose: 1.57 mg/kg/injection, schedule: Q01DX009 (ip), vehicle: saline) was 169 % of control, the T/C (dose: 2.0 mg/kg/injection, schedule: Q01DX005 (ip), vehicle: saline) was 172 % of control and the T/C (dose: 2.5 mg/kg/injection, schedule: Q01DX009 (ip), vehicle: saline) was 176 % of control and 205 % of control. For the same compound, the T/C (dose: 3.89 mg/kg/injection, schedule: Q04DX003 (ip), vehicle: saline) was 157 % of control, the T/C (dose: 4.0 mg/kg/injection, schedule: Q01DX005 (ip), vehicle: saline) was 185 % of control and the T/C (dose: 5.0 mg/kg/injection, schedule: Q01DX009 (ip), vehicle: saline) was 189 % of control. The T/C (dose: 6.48 mg/kg/injection, schedule: Q04DX002 (ip), vehicle: saline) was 150 % of control, the T/C (dose: 6.48 mg/kg/injection, schedule: Q04DX003 (ip), vehicle: saline) was 159 % of control and the T/C (dose: 10.8 mg/kg/injection, schedule: Q04DX002 (ip), vehicle: saline) was 160 % of control. For the same compound, the T/C (dose: 10.8 mg/kg/injection, schedule: Q04DX003 (ip), vehicle: saline) was 175 % of control and the T/C (dose: 18.0 mg/kg/injection, schedule: Q04DX003 (ip), vehicle: saline) was 186 % of control.

With ClC1=C(Cl)C2(Cl)C3C(c4cc(Br)c(Br)cc4C4C3C3(Cl)C(Cl)=C(Cl)C4(Cl)C3(Cl)Cl)C1(Cl)C2(Cl)Cl (stereo not drawn) the T/C (dose: 50.0 mg/kg/injection, schedule: Q01DX009 (ip), vehicle: saline) was 101 % of control, the T/C [1] was 106 % of control and the T/C (dose: 200.0 mg/kg/injection, schedule: Q01DX009 (ip), vehicle: saline) was 102 % of control.

COc1cc2c(cc1C(C)c1ccc(OC(C)=O)cc1)OCO2 (stereo not drawn) was tested, and the T/C (dose: 25.0 mg/kg/injection, schedule: Q01DX005 (ip), vehicle: Klucel (hydroxypropylcellulose) (HPC)) was 103 % of control, the T/C [2] was 103 % of control and the T/C [3] was 99 % of control. For the same compound, the T/C [4] was 101 % of control.

In the case of CC(C)OC(=O)NP1(=O)NCc2ccccc2CN1, the T/C [2] is reported as 101 % of control, the T/C [3] is reported as 103 % of control and the T/C [4] is reported as 94 % of control.

In the case of c1ccc(N=C2CCCCC2)cc1, the T/C (dose: 100.0 mg/kg/injection, schedule: Q01DX001 (ip), vehicle: other) is reported as 98 % of control, the T/C (dose: 200.0 mg/kg/injection, schedule: Q01DX001 (ip), vehicle: other) is reported as 97 % of control and the T/C (dose: 400.0 mg/kg/injection, schedule: Q01DX001 (ip), vehicle: other) is reported as 106 % of control. The T/C (dose: 600.0 mg/kg/injection, schedule: Q01DX001 (ip), vehicle: other) was 101 % of control.

With Clc1cccc(N=Cc2ccc(C=Nc3cccc(Cl)c3)cc2)c1 the T/C (dose: 50.0 mg/kg/injection, schedule: Q01DX009 (ip), vehicle: Klucel (hydroxypropylcellulose) (HPC)) was 94 % of control and the T/C (dose: 100.0 mg/kg/injection, schedule: Q01DX009 (ip), vehicle: Klucel (hydroxypropylcellulose) (HPC)) was 98 % of control.

CC1CN1P(=O)(N1CCCC1)N1CC1C (stereo not drawn) was tested, and the T/C (dose: 4.4 mg/kg/injection, schedule: Q01DX009 (ip), vehicle: saline) was 109 % of control, the T/C (dose: 6.6 mg/kg/injection, schedule: Q01DX009 (ip), vehicle: saline) was 120 % of control and the T/C (dose: 12.5 mg/kg/injection, schedule: Q04DX003 (ip), vehicle: saline) was 100 % of control. The T/C (dose: 25.0 mg/kg/injection, schedule: Q01DX009 (ip), vehicle: saline) was 150 % of control, the T/C (dose: 25.0 mg/kg/injection, schedule: Q04DX003 (ip), vehicle: saline) was 108 % of control and the T/C (dose: 66.0 mg/kg/injection, schedule: Q04DX003 (ip), vehicle: saline) was 166 % of control. The T/C [1] was 86 % of control and the T/C (dose: 100.0 mg/kg/injection, schedule: Q04DX003 (ip), vehicle: saline) was 175 % of control.

From PubChem BioAssay AID330 (DTP/NCI, 2004)
